Measured values published in US20250206732A1, “COMPOUNDS AND METHODS FOR THE TARGETED DEGRADATION OF KRAS” (Arvinas Operations, Inc., priority 2022, published 2025).

Target: T1, AsPC-1 HiBiT-KRASG12D (Homo sapiens, UniProt P01116, G12D)
T1 construct: insert the HiBiT tag onto the N-terminus of one or more of the endogenous KRAS alleles; endogenous in cells; host or cells: AsPC-1 (ATCC CRL-1682), CRISPR-Cas9 knock-in clone, one tagged allele
Test: HiBiT degradation assay (G12D), AsPC-1 HiBiT-KRASG12D cells
Format: cell-based
Conditions: 24 hours treatment; for Dmax: ASPC1, AsPC-1 HiBiT-KRASG12D cells, maximum degradation observed; for DC50: AsPC-1 HiBiT-KRASG12D cells, HiBiT luminescence
Summary of the method: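 AsPC-1 cells (homozygous G12D) carrying a CRISPR knock-in N-terminal HiBiT tag on endogenous KRAS were treated with compounds for 24 hours at 37° C, 5% CO2, in triplicate. Alamar blue viability was read first, then cells were washed and lysed with Nano-Glo HiBiT reagent for 45 minutes before luminescence reading.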

T1 sequence (P01116 1-188 isoform P01116-2 G12D): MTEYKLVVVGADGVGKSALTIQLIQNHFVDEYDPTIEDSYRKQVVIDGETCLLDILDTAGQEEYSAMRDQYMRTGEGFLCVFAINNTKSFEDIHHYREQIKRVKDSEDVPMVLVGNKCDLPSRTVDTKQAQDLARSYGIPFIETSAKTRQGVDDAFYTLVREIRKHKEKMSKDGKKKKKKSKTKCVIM

| SMILES | Dmax [%] | DC50 [nM] |
| --- | --- | --- |
| CCc1cccc2cc(O)cc(-c3ncc4c(N5CC6CCC(C5)N6)nc(OCCN5C[C@@H]6CN(c7cc(C(C(=O)N8C[C@H](O)C[C@H]8C(=O)N[C@@H](C)c8ccc(-c9scnc9C)cc8)C(C)C)on7)C[C@@H]6C5)nc4c3F)c12 (single isomer, unassigned) [Compound 79, (2S,4R)-1-[(2R*)-2-{3-[(3aR,6aS)-5-{2-[(4-{3,8-diazabicyclo[3.2.1]octan-3-yl}-7-(8-ethyl-3-hydroxynaphthalen-1-yl)-8-fluoropyrido[4,3-d]pyrimidin-2-yl)oxy]ethyl}-octahydropyrrolo[3,4-c]pyrrol-2-yl]-1,2-oxazol-5-yl}-3-methylbutanoyl]-4-hydroxy-N-[(1S)-1-[4-(4-methyl-1,3-thiazol-5-yl)phenyl]ethyl]pyrrolidine-2-carboxamide] | 80 to 100 | < 600 |
| CCc1cccc2cc(O)cc(-c3ncc4c(N5CC6CCC(C5)N6)nc(OCCN5CCC6(CC5)CN(c5cc([C@@H](C(=O)N7C[C@H](O)C[C@H]7C(=O)N[C@@H](C)c7ccc(-c8ccnn8C)cc7)C(C)C)on5)C6)nc4c3F)c12 (relative stereo) [Compound 141, (2S,4R)-1-[(2R*)-2-[3-(7-{2-[(4-{3,8-diazabicyclo[3.2.1]octan-3-yl}-7-(8-ethyl-3-hydroxynaphthalen-1-yl)-8-fluoropyrido[4,3-d]pyrimidin-2-yl)oxy]ethyl}-2,7-diazaspiro[3.5]nonan-2-yl)-1,2-oxazol-5-yl]-3-methylbutanoyl]-4-hydroxy-N-[(1S)-1-[4-(1-methyl-1H-pyrazol-5-yl)phenyl]ethyl]pyrrolidine-2-carboxamide] | 20 to 60 | 1000 to 3000 |
| C#Cc1c(F)ccc2cccc(-c3ncc4c(N5CC6CCC(C5)N6)nc(OC[C@]56CCCN5[C@@H](COC(=O)N5CCN(c7cc([C@H](C(=O)N8C[C@H](O)C[C@H]8C(=O)N[C@@H](C)c8ccc(-c9scnc9C)cc8)C(C)C)on7)CC5)CC6)nc4c3F)c12 (single isomer, unassigned) [Compound 333] | 80 to 100 | < 600 |
| CCc1cccc2cc(O)cc(-c3ncc4c(N5CC6CCC(C5)N6)nc(OC[C@@H]5CC[C@@H](COC(=O)N6CCN(c7cc([C@H](C(=O)N8C[C@H](O)C[C@H]8C(=O)N[C@@H](C)c8ccc(-c9scnc9C)cc8)C(C)C)on7)C[C@@H]6C)N5C)nc4c3F)c12 [Compound 261, [(2S,5S)-5-{[(4-{3,8-diazabicyclo[3.2.1]octan-3-yl}-7-(8-ethyl-3-hydroxynaphthalen-1-yl)-8-fluoropyrido[4,3-d]pyrimidin-2-yl)oxy]methyl}-1-methylpyrrolidin-2-yl]methyl (2S)-4-{5-[(2R)-1-[(2S,4R)-4-hydroxy-2-{[(1S)-1-[4-(4-methyl-1,3-thiazol-5-yl)phenyl]ethyl]carbamoyl}pyrrolidin-1-yl]-3-methyl-1-oxobutan-2-yl]-1,2-oxazol-3-yl}-2-methylpiperazine-1-carboxylate] | 80 to 100 | < 600 |
| CCc1cccc2cc(O)cc(-c3ncc4c(N5CCCCCC5)nc(OC[C@@H]5CC[C@@H](COC(=O)N6CC(Oc7cc([C@H](C(=O)N8C[C@H](O)C[C@H]8C(=O)N[C@@H](C)c8ccc(-c9scnc9C)cc8)C(C)C)on7)C6)N5C)nc4c3F)c12 [Compound 241] | 60 to 80 | < 600 |
| CCc1cccc2cc(O)cc(-c3ncc4c(N5CC6CCC(C5)N6)nc(OCCN5CCC(CC6(F)CN(CC(=O)N[C@H](C(=O)N7C[C@H](O)C[C@H]7C(=O)N[C@@H](C)c7ccc(-c8scnc8C)cc7)C(C)(C)C)C6)CC5)nc4c3F)c12 [Compound 263, (2S,4R)-1-[(2S)-2-(2-{3-[(1-{2-[(4-{3,8-diazabicyclo[3.2.1]octan-3-yl}-7-(8-ethyl-3-hydroxynaphthalen-1-yl)-8-fluoropyrido[4,3-d]pyrimidin-2-yl)oxy]ethyl}piperidin-4-yl)methyl]-3-fluoroazetidin-1-yl}acetamido)-3,3-dimethylbutanoyl]-4-hydroxy-N-[(1S)-1-[4-(4-methyl-1,3-thiazol-5-yl)phenyl]ethyl]pyrrolidine-2-carboxamide] | 80 to 100 | < 600 |
| CCc1cccc2cc(O)cc(-c3ncc4c(N5CCCCCC5)nc(OC[C@]56CCCN5[C@H](COc5cc([C@@H](C(=O)N7C[C@H](O)C[C@H]7C(=O)N[C@@H](C)c7ccc(-c8scnc8C)cc7)C(C)C)on5)CC6)nc4c3F)c12 [Compound 207, (2S,4R)-1-[(2S)-2-(3-{[(3S,7aR)-7a-({[4-(azepan-1-yl)-7-(8-ethyl-3-hydroxynaphthalen-1-yl)-8-fluoropyrido[4,3-d]pyrimidin-2-yl]oxy}methyl)-hexahydro-1H-pyrrolizin-3-yl]methoxy}-1,2-oxazol-5-yl)-3-methylbutanoyl]-4-hydroxy-N-[(1S)-1-[4-(4-methyl-1,3-thiazol-5-yl)phenyl]ethyl]pyrrolidine-2-carboxamide] |  | > 3000 |
| CCc1cccc2cc(O)cc(-c3ncc4c(N5CCCCCC5)nc(OC[C@]56CCCN5[C@H](COC(=O)N5CC7(C5)CN(c5cc([C@H](C(=O)N8C[C@H](O)C[C@H]8C(=O)N[C@@H](C)c8ccc(-c9scnc9C)cc8)C(C)C)on5)C7)CC6)nc4c3F)c12 [Compound 283, [(3S,8R)-8-[[4-(azepan-1-yl)-7-(8-ethyl-3-hydroxy-1-naphthyl)-8-fluoro-pyrido[4,3-d]pyrimidin-2-yl]oxymethyl]-1,2,3,5,6,7-hexahydropyrrolizin-3-yl]methyl 6-[5-[(1R)-1-[(2S,4R)-4-hydroxy-2-[[(1S)-1-[4-(4-methylthiazol-5-yl)phenyl]ethyl]carbamoyl]pyrrolidine-1-carbonyl]-2-methyl-propyl]isoxazol-3-yl]-2,6-diazaspiro[3.3]heptane-2-carboxylate] | 80 to 100 | < 600 |
| C#Cc1c(F)ccc2cc(O)cc(-c3ncc4c(N5CC6CCC(C5)N6)nc(OCCN5CCC(CC6CN(c7cc([C@@H](C(=O)N8C[C@H](O)C[C@H]8C(=O)N[C@@H](C)c8ccc(-c9scnc9C)cc8)C(C)C)on7)C6)CC5)nc4c3F)c12 [Compound 217, (2S,4R)-1-[(2S)-2-(3-{3-[(1-{2-[(4-{3,8-diazabicyclo[3.2.1]octan-3-yl}-7-(8-ethynyl-7-fluoro-3-hydroxynaphthalen-1-yl)-8-fluoropyrido[4,3-d]pyrimidin-2-yl)oxy]ethyl}piperidin-4-yl)methyl]azetidin-1-yl}-1,2-oxazol-5-yl)-3-methylbutanoyl]-4-hydroxy-N-[(1S)-1-[4-(4-methyl-1,3-thiazol-5-yl)phenyl]ethyl]pyrrolidine-2-carboxamide] | 20 to 60 | 1000 to 3000 |
| CCc1cccc2cc(O)cc(-c3ncc4c(N5CC6CCC(C5)N6)nc(OCCN5CCC(Oc6cc([C@@H](C(=O)N7C[C@H](O)C[C@H]7C(=O)N[C@@H](C)c7ccc(-c8scnc8C)cc7)C(C)C)on6)CC5)nc4c3F)c12 (relative stereo) [Compound 139, (2S,4R)-1-[(2R*)-2-{3-[(1-{2-[(4-{3,8-diazabicyclo[3.2.1]octan-3-yl}-7-(8-ethyl-3-hydroxynaphthalen-1-yl)-8-fluoropyrido[4,3-d]pyrimidin-2-yl)oxy]ethyl}piperidin-4-yl)oxy]-1,2-oxazol-5-yl}-3-methylbutanoyl]-4-hydroxy-N-[(1S)-1-[4-(4-methyl-1,3-thiazol-5-yl)phenyl]ethyl]pyrrolidine-2-carboxamide] | < 20 | 1000 to 3000 |
| CCc1cccc2cc(O)cc(-c3ncc4c(N5CC6CCC(C5)N6)nc(OCCN5CCC(COCC(=O)N[C@H](C(=O)N6C[C@H](O)C[C@H]6C(=O)N[C@@H](C)c6ccc(-c7scnc7C)c(Cl)c6)C(C)(C)C)CC5)nc4c3F)c12 [Compound 332, (2S,4R)—N-[(1S)-1-[3-chloro-4-(4-methyl-1,3-thiazol-5-yl)phenyl]ethyl]-1-[(2S)-2-{2-[(1-{2-[(4-{3,8-diazabicyclo[3.2.1]octan-3-yl}-7-(8-ethyl-3-hydroxynaphthalen-1-yl)-8-fluoropyrido[4,3-d]pyrimidin-2-yl)oxy]ethyl}piperidin-4-yl)methoxy]acetamido}-3,3-dimethylbutanoyl]-4-hydroxypyrrolidine-2-carboxamide] | 80 to 100 | 600 to 1000 |
| CCc1cccc2cc(O)cc(-c3ncc4c(N5CC6CCC(C5)N6)nc(OCCN5CC(CC6CCN(c7cc([C@H](C(=O)N8C[C@H](O)C[C@H]8C(=O)N[C@@H](C)c8ccc(-c9scnc9C)cc8)C(C)C)on7)CC6)C5)nc4c3F)c12 [Compound 233] | 80 to 100 | < 600 |
| C#Cc1c(F)ccc2cc(O)cc(-c3ncc4c(N5CC6CCC(C5)N6)nc(OCCN5CCC(CCOc6cc([C@H](C(=O)N7C[C@H](O)C[C@H]7C(=O)N[C@@H](C)c7ccc(-c8scnc8C)cc7)C(C)C)on6)CC5)nc4c3F)c12 [Compound 173, (2S,4R)-1-[(2R)-2-{3-[2-(1-{2-[(4-{3,8-diazabicyclo[3.2.1]octan-3-yl}-7-(8-ethynyl-7-fluoro-3-hydroxynaphthalen-1-yl)-8-fluoropyrido[4,3-d]pyrimidin-2-yl)oxy]ethyl}piperidin-4-yl)ethoxy]-1,2-oxazol-5-yl}-3-methylbutanoyl]-4-hydroxy-N-[(1S)-1-[4-(4-methyl-1,3-thiazol-5-yl)phenyl]ethyl]pyrrolidine-2-carboxamide] | 80 to 100 | < 600 |
